From ChEMBL document CHEMBL2331100, “Inhibition pattern of sulfamide-related compounds in binding to carbonic anhydrase isoforms I, II, VII, XII and XIV” (Bioorg Med Chem, 2013)

What was measured:
Carbonic anhydrase 7 = Carbonic anhydrase 7 (Homo sapiens, UniProt P43166); experiment: Inhibition of human carbonic anhydrase 7 preincubated for 15 mins by CO2 hydration stopped-flow assay
Carbonic anhydrase 2 = Carbonic anhydrase 2 (Homo sapiens, UniProt P00918); experiment: Inhibition of human carbonic anhydrase 2 preincubated for 15 mins by CO2 hydration stopped-flow assay
Carbonic anhydrase 12 = Carbonic anhydrase 12 (Homo sapiens, UniProt O43570); experiment: Inhibition of human carbonic anhydrase 12 preincubated for 15 mins by CO2 hydration stopped-flow assay
Carbonic anhydrase 14 = Carbonic anhydrase 14 (Homo sapiens, UniProt Q9ULX7); experiment: Inhibition of human carbonic anhydrase 14 preincubated for 15 mins by CO2 hydration stopped-flow assay
Carbonic anhydrase 1 = Carbonic anhydrase 1 (Homo sapiens, UniProt P00915); experiment: Inhibition of human carbonic anhydrase 1 preincubated for 15 mins by CO2 hydration stopped-flow assay
Chain of Carbonic anhydrase 1 (P00915 whole entry): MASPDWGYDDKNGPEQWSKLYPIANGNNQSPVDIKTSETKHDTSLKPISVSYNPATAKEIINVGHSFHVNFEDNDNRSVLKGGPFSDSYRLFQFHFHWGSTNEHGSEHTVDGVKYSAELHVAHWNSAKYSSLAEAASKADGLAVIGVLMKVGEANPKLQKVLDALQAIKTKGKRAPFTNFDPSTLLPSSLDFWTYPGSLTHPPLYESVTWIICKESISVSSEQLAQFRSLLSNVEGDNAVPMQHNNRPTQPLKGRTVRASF

Chain of Carbonic anhydrase 7 (P43166 whole entry): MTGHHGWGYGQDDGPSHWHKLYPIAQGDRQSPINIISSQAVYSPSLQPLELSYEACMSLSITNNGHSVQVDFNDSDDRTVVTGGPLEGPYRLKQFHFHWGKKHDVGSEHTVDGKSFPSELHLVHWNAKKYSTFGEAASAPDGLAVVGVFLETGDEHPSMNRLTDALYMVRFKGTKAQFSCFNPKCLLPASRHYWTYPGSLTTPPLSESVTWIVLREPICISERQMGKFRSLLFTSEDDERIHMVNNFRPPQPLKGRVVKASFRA
Chain of Carbonic anhydrase 12 (O43570 whole entry): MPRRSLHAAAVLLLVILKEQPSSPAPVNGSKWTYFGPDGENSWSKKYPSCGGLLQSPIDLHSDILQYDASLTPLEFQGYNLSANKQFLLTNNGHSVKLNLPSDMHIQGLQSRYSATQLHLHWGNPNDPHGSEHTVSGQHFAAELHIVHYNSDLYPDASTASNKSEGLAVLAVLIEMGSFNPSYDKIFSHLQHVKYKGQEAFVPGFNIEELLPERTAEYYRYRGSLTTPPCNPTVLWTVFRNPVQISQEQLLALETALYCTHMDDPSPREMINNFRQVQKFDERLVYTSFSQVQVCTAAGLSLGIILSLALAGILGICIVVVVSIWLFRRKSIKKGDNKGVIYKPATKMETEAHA
Chain of Carbonic anhydrase 14 (Q9ULX7 whole entry): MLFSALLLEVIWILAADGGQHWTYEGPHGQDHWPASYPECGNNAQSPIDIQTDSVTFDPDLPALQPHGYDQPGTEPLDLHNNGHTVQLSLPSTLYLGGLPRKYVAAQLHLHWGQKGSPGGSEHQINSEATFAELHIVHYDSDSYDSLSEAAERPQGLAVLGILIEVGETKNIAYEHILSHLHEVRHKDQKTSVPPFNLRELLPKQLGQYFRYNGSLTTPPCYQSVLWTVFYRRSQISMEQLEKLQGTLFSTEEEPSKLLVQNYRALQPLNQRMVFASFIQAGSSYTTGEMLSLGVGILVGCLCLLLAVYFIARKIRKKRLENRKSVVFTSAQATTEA

Structure (SMILES) | Ki (Carbonic anhydrase 7) [µM] | Ki (Carbonic anhydrase 2) [µM] | Ki (Carbonic anhydrase 12) [µM] | Ki (Carbonic anhydrase 14) [µM] | Ki (Carbonic anhydrase 1) [µM]
O=S(=O)(NCCc1ccccc1)NCCc1ccccc1 | > 200 | > 200 | > 200 | > 200 | > 200
NS(=O)(=O)NCc1ccccc1 | 0.3 | 0.12 | 0.94 | 0.84 | 0.13
O=S(=O)(NC1CC1)NC1CC1 | 0.16 | > 200 | 0.77 | 8.79 | > 200
CC(C)(C)OC(=O)NS(=O)(=O)NCc1ccccc1 | 0.17 | 161 | 0.89 | 40.4 | 8.84
COC(=O)[C@H](C)NS(=O)(=O)NC(=O)OC(C)(C)C | > 200 | > 200 | 54.5 | 5.38 | > 200
O=S(=O)(NC1CCCCC1)NC1CCCCC1 | 0.32 | 100 | 0.7 | 9.94 | 6.64
O=S(=O)(N1CCOCC1)N1CCOCC1 | 0.47 | 135 | 9.1 | 48.8 | > 200
COC(=O)CNS(=O)(=O)NC(=O)OC(C)(C)C | > 200 | 55.7 | 56.3 | 5.92 | > 200
COC(=O)CCNS(=O)(=O)Oc1ccccc1O | 68.7 | > 200 | 65 | 8.53 | 88.7
COC(=O)[C@@H](NS(=O)(=O)N[C@H](C(=O)OC)C(C)C)C(C)C | > 200 | > 200 | 73 | – | > 200
COC(=O)[C@H](C)NS(=O)(=O)N[C@@H](C)C(=O)OC | > 200 | > 200 | > 200 | 7.66 | > 200
CCCC(CCC)CN(C(=O)OC(C)(C)C)S(=O)(=O)NCCC(=O)OC | > 200 | 41.1 | 65.4 | 8.09 | 62.2
O=S(=O)(NCc1ccccc1)NCc1ccccc1 [BENZYL(BENZYLSULFAMOYL)AMINE] | 0.38 | 0.65 | 81.5 | – | > 200

Other lines, results leading:

Ki (Carbonic anhydrase 7) [µM] | Ki (Carbonic anhydrase 2) [µM] | Ki (Carbonic anhydrase 12) [µM] | Ki (Carbonic anhydrase 14) [µM] | Ki (Carbonic anhydrase 1) [µM] | Structure (SMILES)
> 200 | > 200 | 61.2 | 8.37 | > 200 | CCCCNS(=O)(=O)NCCC(=O)OC
> 200 | 124 | > 200 | > 200 | 4.69 | CCCNS(=O)(=O)NCCC
> 200 | > 200 | > 200 | > 200 | > 200 | CCCCN(CCCC)S(=O)(=O)N(CCCC)CCCC
> 200 | 60.3 | 3.53 | 7.1 | 24.9 | CCCN(CCC)S(N)(=O)=O
4.3 | 1.92 | 0.89 | – | 2.98 | CCCC(CCC)COS(N)(=O)=O
0.32 | > 200 | 0.91 | – | 6.88 | CCCN(CCC)S(=O)(=O)NC(=O)OC(C)(C)C
> 200 | > 200 | > 200 | – | 9.35 | CCCN(CCC)S(=O)(=O)N(CCC)CCC
> 200 | > 200 | 70.8 | – | > 200 | COC(=O)CCNS(=O)(=O)NCCC(=O)OC
0.41 | 66.3 | 0.69 | 9.79 | 6.64 | CCCCNS(=O)(=O)NCCCC [BUTYL(BUTYLSULFAMOYL)AMINE]
0.7 | 2.82 | 0.73 | 0.82 | 3.66 | CCCCCCOS(N)(=O)=O [HEXYL SULFAMATE]
